# In patent US12679824B2 (Hoffmann-La Roche Inc., priority 2020, dated 2026):
# Test system: Acinetobacter baumannii ATCC17961
# Experiment: 90% Growth Inhibitory Concentration (IC90) determination, antimicrobial susceptibility testing
# Type: cell-based
# Details: Acinetobacter baumannii, ATCC17961, 16 h, Acinetobacter baumannii ATCC17961; Iso-Sensitest broth; growth by optical density at 600 nm over 16h; concentration inhibiting 90% of the growth; read-out: ATCC 17961 IC90
# Summary of the method: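 Broth microdilution in Iso-Sensitest medium, compounds twofold diluted (e.g. 50–0.097 μM final), inoculum ~5×10^(5) CFU/ml, 35±2° C. OD600 was read every 20 min over 16 h. IC90 was derived from growth inhibition during logarithmic growth.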
row,IC90,Compound
1,240 nM,"Cn1c(-c2cn(-c3ccccn3)nc2C(F)(F)F)cnc1C(=O)Nc1ccc(C(=O)N2CCN(C(=O)C3CCNCC3)CC2)c(Cl)c1 [Example A11, N-[3-chloro-4-[4-(piperidine-4-carbonyl)piperazine-1-carbonyl]phenyl]-1-methyl-5-[1-(2-pyridyl)-3-(trifluoromethyl)pyrazol-4-yl]imidazole-2-carboxamide]"
2,560 nM,"CC(C)[C@H]1CN(C(=O)c2ccc(NC(=O)c3ncc(-c4cn(-c5ccc(N)cn5)nc4C(F)(F)F)n3C)cc2Cl)CCN1 [Example Z58, 5-[1-(5-amino-2-pyridyl)-3-(trifluoromethyl)pyrazol-4-yl]-N-[3-chloro-4-[(3S)-3-isopropylpiperazine-1-carbonyl]phenyl]-1-methyl-imidazole-2-carboxamide]"
3,220 nM,"CNC1CCN(C(=O)c2ccc(NC(=O)c3ncc(-c4cn(-c5ccc(N)cn5)nc4C(F)(F)F)n3C)cc2Cl)CC1 [Example Z4, 5-[1-(5-amino-2-pyridyl)-3-(trifluoromethyl)pyrazol-4-yl]-N-[3-chloro-4-[4-(methylamino)piperidine-1-carbonyl]phenyl]-1-methyl-imidazole-2-carboxamide]"
4,710 nM,"Cn1c(-c2cn(-c3ccncc3)nc2C(F)(F)F)cnc1C(=O)Nc1ccc(C(=O)N2CCN(C(=O)C3CCNCC3)CC2)c(Cl)c1 [Example A2, N-[3-chloro-4-[4-(piperidine-4-carbonyl)piperazine-1-carbonyl]phenyl]-1-methyl-5-[1-(4-pyridyl)-3-(trifluoromethyl)pyrazol-4-yl]imidazole-2-carboxamide]"
5,1290 nM,"Cn1c(-c2cn(-c3ccc(N)cn3)nc2C(F)(F)F)cnc1C(=O)Nc1ccc(C(=O)N2CCNC(C)(C)C2)c(Cl)c1 [Example Z57, 5-[1-(5-amino-2-pyridyl)-3-(trifluoromethyl)pyrazol-4-yl]-N-[3-chloro-4-(3,3-dimethylpiperazine-1-carbonyl)phenyl]-1-methyl-imidazole-2-carboxamide]"
6,950 nM,"COc1cc(-n2cc(-c3cnc(C(=O)Nc4ccc(C(=O)N5CCN(C(=O)C6CCNCC6)CC5)c(Cl)c4)n3C)c(C(F)(F)F)n2)ccn1 [Example Z73, N-[3-chloro-4-(4-isonipecotoylpiperazine-1-carbonyl)phenyl]-5-[1-(2-methoxy-4-pyridyl)-3-(trifluoromethyl)pyrazol-4-yl]-1-methyl-imidazole-2-carboxamide]"

# Same assay, conditions: Acinetobacter baumannii, ATCC17961, 16 h, read-out: ATCC 17961 IC90
row,Compound,IC90
1,"Cn1c(-c2cn(-c3ncccn3)nc2C(F)(F)F)cnc1C(=O)Nc1ccc(C(=O)N2CCN(C(=O)C3CCN(CC4CNC4)CC3)CC2)c(Cl)c1 [Example G1, N-[4-[4-[1-(Azetidin-3-ylmethyl)piperidine-4-carbonyl]piperazine-1-carbonyl]-3-chloro-phenyl]-1-methyl-5-[1-pyrimidin-2-yl-3-(trifluoromethyl)pyrazol-4-yl]imidazole-2-carboxamide]",390 nM
2,"Cn1c(-c2cn(-c3ccc(N)c(F)n3)nc2C(F)(F)F)cnc1C(=O)Nc1ccc(C(=O)N2CCN(C(=O)C3CCNCC3)CC2)c(Cl)c1 [Example Z72, 5-[1-(5-amino-6-fluoro-2-pyridyl)-3-(trifluoromethyl)pyrazol-4-yl]-N-[3-chloro-4-[4-(piperidine-4-carbonyl)piperazine-1-carbonyl]phenyl]-1-methyl-imidazole-2-carboxamide]",250 nM
3,"Cn1c(-c2cn(-c3ccc(N)cn3)nc2C(F)(F)F)cnc1C(=O)Nc1ccc(C(=O)N2CCC(CNC(=O)[C@@H]3C[C@@H](O)CN3)CC2)c(Cl)c1 [Example Z45, 5-[1-(5-amino-2-pyridyl)-3-(trifluoromethyl)pyrazol-4-yl]-N-[3-chloro-4-[4-[[[(2S,4R)-4-hydroxyprolyl]amino]methyl]piperidine-1-carbonyl]phenyl]-1-methyl-imidazole-2-carboxamide]",650 nM
